Data set [1] relates to P. falciparum D6 (CQS). Particulars: cited from earlier work.
In data set [2] the test system is mouse spleen lymphocytes. Particulars: cited from earlier work.
In data set [3] the test system is P. falciparum 7G8 (CQR). Particulars: CQR 7G8, cited from earlier work.
The test system of data set [4] is P. falciparum Dd2 (CQR). Particulars: cited from earlier work.
The nature of data set [5]: In vitro heme binding (optical titration). Particulars: 5 μM heme, phosphate buffer 100 mM, pH 5.7; read-out: heme binding dissociation constant (Kd). How it is done:
In vitro heme binding and β-hematin inhibition.
A 5 mM stock solution of heme was prepared by dissolving heme chloride in 0.1 mM NaOH by incubation at 37°C for 30 min. The solution was stored at 4°C for no more than 1 month. At the beginning of each experiment, the stock heme solution was diluted to 5 μM in phosphate buffer (100 mM, pH 5.7) and allowed to equilibrate for 4 h. The 4-h equilibration allowed for the initial heme absorbance to stabilize prior to beginning the titration. Optical titrations with each compound were performed by successive addition of aliquots of its stock solution to the 5 μM heme solution. […] Equilibrium binding constants were determined by nonlinear least-squares analysis ([39]).

The nature of data set [6]: Single-dose toxicity evaluation in mice. The format is in vivo. Particulars: for Toxicity observation: single-dose experiments on 1 or 2 mice/compound, doses limited by water solubility. How it is done: The compounds were first converted to water-soluble hydrochloride or phosphate salts for administration in aqueous solution. Efficacy testing was carried out using 4 different dose levels with 5 mice at each level, administered by oral gavage. […] A single-dose toxicity evaluation was also performed, using 1 or 2 mice in each case.

In data set [7] the test system is mouse spleen lymphocytes. The data set is described as follows: Cytotoxicity against mouse spleen lymphocytes. The format is cell-based. Particulars: estimated ±50%.
The subject of data set [8] is P. falciparum 7G8 (CQR). Nature of the data set: Inhibition of P. falciparum growth, CQR 7G8 (SYBR green I fluorescence). Particulars: Plasmodium falciparum, 7G8, 72 h; read-out: IC50 (nM) for P. falciparum 7G8. The format is cell-based, Plasmodium falciparum. The text has this:
(§1) Inhibition of P. falciparum growth.
(§2) CQS (D6) and CQR (Dd2 and 7G8) P. falciparum maintained continuously in culture were used ([38]). […] The fluorescence readings were plotted against log(drug), and the IC50s were obtained from curve fitting performed by nonlinear regression using either Prism (GraphPad) or Excel (Microsoft) software.

The subject of data set [9] is P. falciparum Dd2 (CQR). The data set is described as follows: Inhibition of P. falciparum growth, CQR Dd2 (SYBR green I fluorescence). Format: cell-based. Particulars: Plasmodium falciparum.
Source text: as §1, §2

For data set [10], the system named is P. falciparum D6 (CQS). Nature of the data set: Inhibition of P. falciparum growth, CQS D6 (SYBR green I fluorescence). The format is cell-based. Particulars: Plasmodium falciparum.
Source text: as §1, §2

The next data set concerns P. yoelii. The data set is described as follows: In vivo 3-day suppressive test against P. yoelii in a murine malaria model. Further details: species or system Plasmodium yoelii. Particulars: mice, oral gavage, 3 daily doses, water-soluble hydrochloride or phosphate salts; errors estimated ±20%. How it is done: A selection of the compounds (compounds 9, 10, 12, 21, 23, and 24) was tested in vivo against P. yoelii in a murine malaria model. The compounds were first converted to water-soluble hydrochloride or phosphate salts for administration in aqueous solution. Efficacy testing was carried out using 4 different dose levels with 5 mice at each level, administered by oral gavage. […] A single-dose toxicity evaluation was also performed, using 1 or 2 mice in each case. The doses were limited by water solubilities.
In vivo 3-day suppressive test.
Female CF-1 mice, at 4 to 5 weeks of age, were injected intravenously with 10^6 erythrocytes infected with P. yoelii ([43][–][45]). The following day, and then daily for a total of 3 doses, 5 mice each were administered the appropriate dose of the compound by gavage and evaluated by direct microscopic analysis of Giemsa-stained blood smears ([46]) 1 day after the final dose. The Portland State University Institutional Animal Care and Use Committee approved the protocols involving animals used in this study.

The mark [11] stands for this setting: DD2, 72 h, read-out: IC50 (nM) for P. falciparum Dd2.
[12] abbreviates: D6, 72 h, read-out: IC50 (nM) for P. falciparum D6.

Read-outs that look alike come from different tables or passages of the source.

As usually defined, the IC50 is the midpoint of a concentration-inhibition curve. On to `CN(CCCNc1ccnc2cc(Cl)ccc12)CCCN1c2ccccc2CCc2ccccc21` [Compound 1], for which the values for the half-inhibitory concentration (IC50) in the data set with P. falciparum D6 (CQS) [1] (ref Burgess et al. (31)), with P. falciparum 7G8 (CQR) [3] (ref Burgess et al. (31)) and in the data set with P. falciparum Dd2 (CQR) [4] (ref Burgess et al. (31)) were 2.9 nM, 4 nM and 5.3 nM, respectively. For the same molecule, the Cytotoxicity with mouse spleen lymphocytes [2] (ref Burgess et al. (31)) is recorded as 700 nM.

With `O=C(CNCCNc1ccnc2cc(Cl)ccc12)N(Cc1ccccc1)Cc1ccccc1` [Compound 2], the IC50 was 14 nM in the data set on P. falciparum D6 (CQS) [1] (ref Andrews et al. (32)) and 16 nM in the data set with P. falciparum Dd2 (CQR) [4] (ref Andrews et al. (32)). The Cytotoxicity in the data set with mouse spleen lymphocytes [2] (ref Andrews et al. (32)) is 62,000 nM.

Take `Clc1ccc2c(NCCCN3CCN(C(c4ccccc4)c4ccccc4)CC3)ccnc2c1` [Compound 3]: the IC50 is 1.9 nM with P. falciparum D6 (CQS) [1] (ref Burgess et al. (33)), 11 nM in the data set with P. falciparum 7G8 (CQR) [3] (ref Burgess et al. (33)) and 2.6 nM with P. falciparum Dd2 (CQR) [4] (ref Burgess et al. (33)). Moreover, the Cytotoxicity with mouse spleen lymphocytes [2] (ref Burgess et al. (33)) was 1,100 nM.

In general, Kd refers to the equilibrium constant for the complex coming apart. What is called ED50 is the dose at which the effect has come halfway, by size or by number of responders. On to `Clc1ccc2c(NCCCN3CCN(c4ccccc4)CC3)ccnc2c1` [Compound 9, 7-Chloro-N-(3-(4-phenylpiperazin-1-yl)propyl)quinolin-4-amine], for which, in data set [5], the dissociation constant Kd is about 5000 nM. Further, the Toxicity observation entry in data set [6] is on record as “Well tolerated at 300 mg/kg”. In addition, in data set [6] (single-dose toxicity screen in mice vs ED50 against P. yoelii), the “dose without evident toxicity as multiple of the ED50” value amounted to 150 fold. The Cytotoxicity in the data set with mouse spleen lymphocytes [7] is listed as 6,400 nM. Also, the IC50 in the data set on P. falciparum 7G8 (CQR) [8] worked out at 0.6 nM; with P. falciparum Dd2 (CQR) [9] (setting [11]) it was 0.7 nM; in the data set on P. falciparum Dd2 (CQR) [9] (DD2, read-out: IC50 from dose-response curve against CQR Dd2 (Fig 4b)) it was 0.5 nM; in the data set on P. falciparum D6 (CQS) [10] (setting [12]), 0.4 nM; in the data set with P. falciparum D6 (CQS) [10] (D6, read-out: IC50 from dose-response curve against CQS D6 (Fig 4a)), 0.5 nM. Besides, the ED50 with P. yoelii is given as 2 mg/kg/day.

As for `COc1ccc(N2CCN(CCCNc3ccnc4cc(Cl)ccc34)CC2)cc1` [Compound 12, 7-Chloro-N-(3-(4-(4-methoxyphenyl)piperazin-1-yl)propyl)quinolin-4-amine], the Kd in data set [5] was about 5000 nM. Also, in data set [6], the Toxicity observation result is “Well tolerated at 500 mg/kg”. Moreover, the IC50 was 0.3 nM in the data set with P. falciparum 7G8 (CQR) [8], 0.3 nM in the data set on P. falciparum Dd2 (CQR) [9] (setting [11]) and 1.3 nM in the data set with P. falciparum D6 (CQS) [10] (setting [12]). In addition, in the data set with P. yoelii, the ED50 is given as 10 mg/kg/day.

Consider `Clc1ccc2c(NCCCN3CCNCC3)ccnc2c1` [Compound 16], for which the results for the concentration for half-maximal inhibition (IC50) with P. falciparum D6 (CQS) [1] (ref Burgess et al. (33)) and with P. falciparum Dd2 (CQR) [4] (ref Burgess et al. (33)) were 4.3 nM and 6.8 nM, respectively. Besides, in the data set with mouse spleen lymphocytes [2] (ref Burgess et al. (33)), the Cytotoxicity was 23,000 nM.

The values above are taken from publication PMC5404532, “Simplified Reversed Chloroquines To Overcome Malaria Resistance to Quinoline-Based Drugs” (Antimicrobial Agents and Chemotherapy, 2017).
